Assay [1] has as its target T1, cGMP-specific 3',5'-cyclic phosphodiesterase (Homo sapiens, UniProt O76074). In words: Inhibition of human PDE5A using fluorescence-labelled substrate.
The target of assay [2] is T2, Protein deacetylase HDAC6 (Homo sapiens, UniProt Q9UBN7).
T2 sequence (Q9UBN7 whole entry): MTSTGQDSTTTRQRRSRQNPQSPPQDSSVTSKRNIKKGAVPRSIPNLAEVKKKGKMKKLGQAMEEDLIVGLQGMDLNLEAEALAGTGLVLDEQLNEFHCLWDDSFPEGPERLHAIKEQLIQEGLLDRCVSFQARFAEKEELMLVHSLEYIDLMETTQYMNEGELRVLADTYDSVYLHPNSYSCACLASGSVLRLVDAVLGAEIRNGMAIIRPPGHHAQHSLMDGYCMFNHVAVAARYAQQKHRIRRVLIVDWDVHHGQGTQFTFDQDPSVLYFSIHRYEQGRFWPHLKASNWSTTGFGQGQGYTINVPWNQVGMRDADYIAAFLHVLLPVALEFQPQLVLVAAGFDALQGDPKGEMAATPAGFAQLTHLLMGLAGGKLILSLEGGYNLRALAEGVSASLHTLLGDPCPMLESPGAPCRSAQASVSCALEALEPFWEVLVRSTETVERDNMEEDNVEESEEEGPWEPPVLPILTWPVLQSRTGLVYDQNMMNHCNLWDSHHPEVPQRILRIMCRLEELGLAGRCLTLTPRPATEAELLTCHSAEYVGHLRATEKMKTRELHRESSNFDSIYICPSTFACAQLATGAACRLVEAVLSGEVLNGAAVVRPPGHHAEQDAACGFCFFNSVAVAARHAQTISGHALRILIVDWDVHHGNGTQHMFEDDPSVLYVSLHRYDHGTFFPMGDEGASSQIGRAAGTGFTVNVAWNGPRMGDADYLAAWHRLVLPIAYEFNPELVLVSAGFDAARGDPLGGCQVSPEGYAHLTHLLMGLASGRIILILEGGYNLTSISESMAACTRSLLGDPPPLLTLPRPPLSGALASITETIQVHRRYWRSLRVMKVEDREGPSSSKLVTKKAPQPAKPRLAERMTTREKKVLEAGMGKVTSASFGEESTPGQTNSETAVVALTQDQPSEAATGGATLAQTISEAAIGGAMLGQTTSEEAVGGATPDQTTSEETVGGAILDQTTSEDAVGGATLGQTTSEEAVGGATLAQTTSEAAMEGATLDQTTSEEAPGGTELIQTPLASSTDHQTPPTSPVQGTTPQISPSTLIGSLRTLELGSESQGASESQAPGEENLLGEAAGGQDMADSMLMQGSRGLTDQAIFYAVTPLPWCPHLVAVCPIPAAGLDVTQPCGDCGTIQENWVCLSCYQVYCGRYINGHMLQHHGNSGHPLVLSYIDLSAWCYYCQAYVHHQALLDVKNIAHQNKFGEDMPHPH
In words: Inhibition of human HDAC6.

The target in a further assay is Histone deacetylase 1 (Homo sapiens, UniProt Q13547). Description: Inhibition of human HDAC1.
Histone deacetylase 1, sequence (Q13547 whole entry): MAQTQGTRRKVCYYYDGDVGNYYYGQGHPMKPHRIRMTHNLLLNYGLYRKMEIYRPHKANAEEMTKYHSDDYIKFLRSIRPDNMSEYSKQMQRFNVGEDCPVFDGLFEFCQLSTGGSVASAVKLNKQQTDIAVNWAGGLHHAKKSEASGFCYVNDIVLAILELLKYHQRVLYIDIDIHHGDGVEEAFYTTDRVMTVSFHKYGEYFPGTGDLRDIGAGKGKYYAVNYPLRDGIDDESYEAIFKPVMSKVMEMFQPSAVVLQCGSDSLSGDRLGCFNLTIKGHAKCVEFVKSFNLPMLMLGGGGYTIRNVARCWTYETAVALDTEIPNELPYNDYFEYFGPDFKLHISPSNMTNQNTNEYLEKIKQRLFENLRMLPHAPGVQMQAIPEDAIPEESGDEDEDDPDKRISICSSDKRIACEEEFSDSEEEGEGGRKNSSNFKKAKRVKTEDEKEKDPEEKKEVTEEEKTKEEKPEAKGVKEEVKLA
In assay [3] the target is T3, Acetylcholinesterase (Electrophorus electricus, UniProt O42275). In words: Inhibition of electric eel AChE using acetylthiocholine iodide as substrate.
T3 sequence (O42275 whole entry): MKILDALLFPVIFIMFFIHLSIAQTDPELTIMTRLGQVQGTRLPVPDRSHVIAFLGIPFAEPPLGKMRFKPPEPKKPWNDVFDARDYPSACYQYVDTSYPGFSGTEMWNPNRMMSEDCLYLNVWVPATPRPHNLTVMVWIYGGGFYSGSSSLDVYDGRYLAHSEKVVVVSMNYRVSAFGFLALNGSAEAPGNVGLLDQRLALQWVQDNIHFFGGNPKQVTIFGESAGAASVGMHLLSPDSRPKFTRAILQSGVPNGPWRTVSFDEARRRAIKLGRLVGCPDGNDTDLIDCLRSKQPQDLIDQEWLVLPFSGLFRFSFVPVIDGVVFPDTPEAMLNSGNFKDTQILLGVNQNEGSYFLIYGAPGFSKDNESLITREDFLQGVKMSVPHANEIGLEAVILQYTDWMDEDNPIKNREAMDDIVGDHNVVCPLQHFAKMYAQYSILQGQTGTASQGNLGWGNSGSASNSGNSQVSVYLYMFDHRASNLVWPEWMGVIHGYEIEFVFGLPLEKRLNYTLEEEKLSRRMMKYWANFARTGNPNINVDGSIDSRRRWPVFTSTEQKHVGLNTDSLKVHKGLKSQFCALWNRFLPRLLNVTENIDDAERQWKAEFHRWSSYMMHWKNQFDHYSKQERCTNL
The nature of assay [4]: Inhibition of equine serum BuChE using butyrylthiocholine chloride as substrate.
The target in assay [5] is T1, cGMP-specific 3',5'-cyclic phosphodiesterase. Description: Inhibition of human PDE5.
For assay [6], the system named is Tobacco mosaic virus. Description: In vivo antiviral activity against tobacco mosaic virus assessed as protection activity at 500 ug/ml relative to control. It is filed as functional. Particulars: dose 500 µg/ml.
Assay [7] has as its system Tobacco mosaic virus. Description: In vivo antiviral activity against tobacco mosaic virus assessed as curative activity at 500 ug/ml relative to control. The class given is functional. Particulars: dose 500 µg/ml.
The test system of assay [8] is Tobacco mosaic virus. In words: In vivo antiviral activity against tobacco mosaic virus assessed as virus inactivation at 500 ug/ml relative to control. The class given is functional. Particulars: dose 500 µg/ml.
In another assay the test system is Plasmodium berghei. Description: Antiplasmodial activity against Plasmodium berghei assessed as inhibition of schizont maturation at 5 ug/ml relative to control. The class given is functional.
Assay [9] can be described thus: Inhibition of equine serum BuChE using S-butylthiocholine iodide as substrate measured after 20 mins by Ellmans method. Further details: species or system […]. (In general: Ellman's reagent forms a yellow product with free thiols.)
In assay [10] the target is T3, Acetylcholinesterase. In words: Inhibition of electric eel AChE using acetylthiocholine iodide as substrate measured after 20 mins by Ellmans method.
Assay [11] has as its target Amyloid-beta precursor protein (Homo sapiens) (UniProt P05067). In words: Inhibition of self-induced amyloid beta (1 to 42 ) (unknown origin) aggregation at 20 uM measured after 24 hrs by thioflavin-T fluorescence method relative to control.
Assay [12] addresses T1, cGMP-specific 3',5'-cyclic phosphodiesterase. In words: Inhibition of PDE5 (unknown origin).
Assay [13] is described as follows: Inhibition of Plasmodium falciparum IspD.
In assay [14] the target is T4, Kinesin-like protein KIF11 (Homo sapiens, UniProt P52732).
T4 sequence (P52732 whole entry): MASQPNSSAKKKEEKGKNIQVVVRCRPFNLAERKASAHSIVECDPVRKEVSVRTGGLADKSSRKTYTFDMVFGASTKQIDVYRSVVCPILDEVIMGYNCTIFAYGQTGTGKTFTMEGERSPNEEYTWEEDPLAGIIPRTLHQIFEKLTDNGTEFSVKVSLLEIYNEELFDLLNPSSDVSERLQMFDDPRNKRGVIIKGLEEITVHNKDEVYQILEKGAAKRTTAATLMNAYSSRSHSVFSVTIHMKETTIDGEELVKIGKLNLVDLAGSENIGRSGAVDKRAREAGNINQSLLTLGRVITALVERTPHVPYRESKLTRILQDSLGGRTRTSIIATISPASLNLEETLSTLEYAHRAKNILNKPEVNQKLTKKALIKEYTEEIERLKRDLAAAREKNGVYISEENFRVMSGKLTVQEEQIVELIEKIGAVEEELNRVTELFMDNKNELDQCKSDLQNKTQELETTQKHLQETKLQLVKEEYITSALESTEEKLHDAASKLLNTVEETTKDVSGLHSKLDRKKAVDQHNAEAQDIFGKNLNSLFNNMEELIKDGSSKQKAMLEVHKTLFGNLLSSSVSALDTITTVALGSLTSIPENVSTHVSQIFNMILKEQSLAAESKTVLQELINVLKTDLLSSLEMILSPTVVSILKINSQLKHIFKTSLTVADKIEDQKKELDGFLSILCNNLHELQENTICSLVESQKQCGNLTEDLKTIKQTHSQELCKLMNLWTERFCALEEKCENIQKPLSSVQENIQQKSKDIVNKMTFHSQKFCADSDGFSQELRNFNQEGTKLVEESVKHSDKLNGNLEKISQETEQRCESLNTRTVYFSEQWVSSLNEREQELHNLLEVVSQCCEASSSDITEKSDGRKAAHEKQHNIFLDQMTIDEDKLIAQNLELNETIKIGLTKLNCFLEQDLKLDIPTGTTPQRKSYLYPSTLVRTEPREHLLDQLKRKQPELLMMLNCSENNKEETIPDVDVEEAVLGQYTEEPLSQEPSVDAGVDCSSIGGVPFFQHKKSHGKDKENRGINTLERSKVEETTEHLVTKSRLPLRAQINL
Description: Inhibition of Eg5 ATPase activity (unknown origin).

The test system of assay [15] is Gaeumannomyces graminis. In words: Antifungal activity against Gaeumannomyces graminis at 10 mg/ml relative to control. The class given is functional.
Assay [16] has as its system Gaeumannomyces graminis. In words: Antifungal activity against Gaeumannomyces graminis. The class given is functional, organism-based.

Molecules are shown by their SMILES. pIC50: −log10 of the molar value. Values after ≈ are worked out from the molar mass of the structure shown.

Amyloid-beta precursor protein (Homo sapiens), sequence (P05067 whole entry): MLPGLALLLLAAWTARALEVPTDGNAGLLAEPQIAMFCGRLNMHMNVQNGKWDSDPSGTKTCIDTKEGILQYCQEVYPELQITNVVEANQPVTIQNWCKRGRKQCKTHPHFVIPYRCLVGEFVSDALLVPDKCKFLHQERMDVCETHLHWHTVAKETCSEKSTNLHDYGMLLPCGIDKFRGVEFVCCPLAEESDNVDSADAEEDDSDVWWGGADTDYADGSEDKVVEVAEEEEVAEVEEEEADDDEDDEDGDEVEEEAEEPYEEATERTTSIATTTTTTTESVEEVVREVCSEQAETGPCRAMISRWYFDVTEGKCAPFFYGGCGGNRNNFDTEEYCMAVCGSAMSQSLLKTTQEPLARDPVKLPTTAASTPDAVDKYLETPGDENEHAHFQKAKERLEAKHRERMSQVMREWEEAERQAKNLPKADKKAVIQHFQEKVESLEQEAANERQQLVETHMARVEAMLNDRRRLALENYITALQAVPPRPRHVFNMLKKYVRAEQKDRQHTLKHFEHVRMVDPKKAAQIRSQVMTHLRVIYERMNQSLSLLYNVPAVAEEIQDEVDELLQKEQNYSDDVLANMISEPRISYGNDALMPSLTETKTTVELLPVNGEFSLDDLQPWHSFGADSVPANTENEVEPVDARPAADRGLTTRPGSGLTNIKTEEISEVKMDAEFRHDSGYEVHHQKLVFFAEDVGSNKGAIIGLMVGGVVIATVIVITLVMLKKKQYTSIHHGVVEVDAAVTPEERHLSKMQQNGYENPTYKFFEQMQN

As for `O=C(Cc1cnc(N2CCC(CN3CC(=O)N4[C@H](c5ccc6c(c5)OCO6)c5[nH]c6ccccc6c5C[C@@H]4C3=O)CC2)nc1)NO`, the negative logarithm of the IC50 (pIC50) (as a rule, the IC50 on a negative log10 scale, so that one unit is a factor of ten) is 6.19 in assay [1], 6.62 in assay [2] and 6.71 on Histone deacetylase 1. With `CC1c2[nH]c3ccccc3c2CCN1C(=O)/C=C/c1ccc(O)c(O)c1` (stereo not drawn), the pIC50 is 4.67 against Acetylcholinesterase [3] and 5.88 in assay [4]. `COC(=O)c1cc2c(cn1)[nH]c1ccccc12` [BETA-CCM] showed a pIC50 in assay [5] of 6.10.

For the compound `CNCC(=O)N[C@@H](CO)C(=O)N[C@H]1[C@H](O)[C@@H](O)[C@H](n2ccc(N)nc2=O)O[C@@H]1C(N)=O` [NINGNANMYCIN], the figures for the Activity with Tobacco mosaic virus [6], in the assay on Tobacco mosaic virus [7] and in the assay on Tobacco mosaic virus [8] were 55%, 54.2% and 57.3%, respectively.

In the case of `COC(=O)[C@@H]1Cc2c([nH]c3ccccc23)[C@@H](c2ccc3c(c2)OCO3)N1`, the inhibition (usually the change of the read-out against control, counted positive when it falls) at 5 µg/mL in the assay with Plasmodium berghei is 71.8%. In assay [1], `O=C(CCCCCCN1CC(=O)N2[C@H](c3ccc(Br)cc3)c3[nH]c4ccccc4c3C[C@@H]2C1=O)NO` gave a negative logarithm of the IC50 (pIC50) of 7.34. Regarding `COC(=O)[C@@H]1Cc2c([nH]c3ccccc23)[C@@H](c2cccnc2)N1`, the inhibition at 5 µg/mL in the assay on Plasmodium berghei came out at 86.2%. In the case of `CCOC(=O)[C@H]1Cc2c([nH]c3ccccc23)[C@H](C)N1`, the figures for the Activity with Tobacco mosaic virus [6], in the assay with Tobacco mosaic virus [7] and with Tobacco mosaic virus [8] were 47.9%, 43.9% and 50.4%, respectively. Compound `CN1C(=O)C2CN(Cc3c2c2ccccc2n3Cc2ccc(C(=O)NO)cc2)C1=O` (stereo not drawn) showed a pIC50 in [2] of 9.15.

In the case of `C[C@@H]1N[C@@H](C(=O)NN)Cc2c1[nH]c1ccccc21`, the Activity stood at 59.5% with Tobacco mosaic virus [6], 57.2% in the assay on Tobacco mosaic virus [7] and 64.2% in the assay with Tobacco mosaic virus [8]. As for `c1ccc2c(NCCCCCCCN3CCc4c([nH]c5ccccc45)C3)c3c(nc2c1)CCCC3`, the negative-log IC50 (pIC50) was 8.50 in assay [9] and 7.76 on Acetylcholinesterase [10]. Take `COc1ccc2[nH]c3c(c2c1)CCN(C(=O)/C=C/c1ccc(O)c(O)c1)C3C` (stereo not drawn): the figures for the negative logarithm of the IC50 (pIC50) (on Acetylcholinesterase [3]; in assay [4]) were 4.12 and 5.19, respectively. In [11], this compound returned an inhibition of 65%. The compound `COc1cccc2c1C(=O)N1CCc3c([nH]c4cccc(OC)c34)[C@@H]1C2C` (stereo partly drawn) showed a negative logarithm of the IC50 (pIC50) in [12] of 7.46. As to `CC1N[C@@H](C(=O)N/N=C/c2ccc(Cl)cc2)Cc2c1[nH]c1ccccc21` (stereo partly drawn), the figures for the Activity in the assay on Tobacco mosaic virus [6], in the assay with Tobacco mosaic virus [7] and in the assay on Tobacco mosaic virus [8] were 64.2%, 71.5% and 70.4%, respectively.

Turning to `O=C(O)[C@@H]1Cc2c([nH]c3ccccc23)[C@@H](c2ccc(Cl)cc2Cl)N1`, the pIC50 in [13] is 6.68. As to `CC1N[C@H](C(=O)N/N=C/c2ccc(Cl)cc2)Cc2c1[nH]c1ccccc21` (stereo partly drawn), the Activity is reported as 68.1% with Tobacco mosaic virus [6], 63.2% in the assay with Tobacco mosaic virus [7] and 66.9% with Tobacco mosaic virus [8]. Regarding `CCCCN1C(=O)[C@@H]2Cc3c([nH]c4ccccc34)[C@@H](c3cccc(O)c3)N2C1=O`, the pIC50 in assay [14] is 5.37.

Turning to `CCCCOC(=O)[C@H]1Cc2c([nH]c3ccccc23)[C@H](C)N1`, the Activity in the assay on Tobacco mosaic virus [6] is listed as 43.2%; with Tobacco mosaic virus [7] it was 42.2%; in the assay with Tobacco mosaic virus [8], 51.3%. Compound `O=C(CCCCN1CCc2c([nH]c3ccccc23)C1)Oc1ccc(/C=C2/CCc3nc4ccccc4c(=O)n32)cc1` gave a pIC50 at Acetylcholinesterase [10] of 8.97. The compound `C[C@@H]1COC(c2ccccc2NC(=O)[C@@H]2Cc3c([nH]c4ccccc34)[C@H](C)N2)=N1` registered an inhibition at 10000 µg/mL with Gaeumannomyces graminis [15] of 72.2%. For the same compound, in the assay on Gaeumannomyces graminis [16], the EC50 (in general, the concentration at which the effect is half-maximal) is 3.53 µg/mL (≈ 9.09 µM). Compound `C[C@@H]1N[C@H](C(=O)Nc2ccccc2C2=N[C@@H](C)CO2)Cc2c1[nH]c1ccccc21` showed an inhibition at 10000 µg/mL in the assay on Gaeumannomyces graminis [15] of 65.8%. As to `CC1N[C@@H](C(=O)N/N=C/C2CCCCC2)Cc2c1[nH]c1ccccc21` (stereo partly drawn), the values for the Activity with Tobacco mosaic virus [6], in the assay with Tobacco mosaic virus [7] and in the assay on Tobacco mosaic virus [8] were 69.2%, 62.8% and 75.8%, respectively.

For the origin of these results see ChEMBL document CHEMBL5230151, “A review of synthetic bioactive tetrahydro-β-carbolines: A medicinal chemistry perspective” (Eur J Med Chem, 2021).
